Results from ChEMBL document CHEMBL1154429, “Identifying mutator phenotypes among fluoroquinolone-resistant strains of Streptococcus pneumoniae using fluctuation analysis” (2007).

Tests used:
Type in all cases: functional
Streptococcus pneumoniae [1] = experiment: Antibacterial activity against Streptococcus pneumoniae 455 with parC S79Y, gyrA S81F mutation by […]
Streptococcus pneumoniae [2] = experiment: Antibacterial activity against Streptococcus pneumoniae D39-3 with parC S79Y, gyrA S81F mutation by […]
Streptococcus pneumoniae [3] = experiment: Antibacterial activity against Streptococcus pneumoniae 3386 with parC S79F, gyrA S81F mutation by […]

Measured: MIC

C[C@H]1COc2c(N3CCN(C)CC3)c(F)cc3c(=O)c(C(=O)O)cn1c23.C[C@H]1COc2c(N3CCN(C)CC3)c(F)cc3c(=O)c(C(=O)O)cn1c23.O [LEVOFLOXACIN]
> 32 µg/mL: all assays above
